Measured values published in ChEMBL document CHEMBL2385069, “Thiourea derivatives incorporating a hippuric acid moiety: synthesis and evaluation of antibacterial and antifungal activities” (2013).

Assays:
Assay type in all cases: functional
[1] = tested on: Pseudomonas aeruginosa; assay: Antibacterial activity against Pseudomonas aeruginosa ATCC 27953 assessed as diameter of inhibition zone at 1 mg/ml after 24 hrs by agar well diffusion method; settings: ATCC 27953, 24 h, read-out: DIZ
[2] = tested on: Staphylococcus aureus; assay: Antibacterial activity against Staphylococcus aureus ATCC 29213 assessed as diameter of inhibition zone at 1 mg/ml after 24 hrs by agar well diffusion method; settings: ATCC 29213, 24 h, read-out: DIZ
[3] = tested on: Candida albicans; assay: Antifungal activity against Candida albicans NRRLY-477 assessed as diameter of inhibition zone at 1 mg/ml after 24 hrs by agar well diffusion method; settings: NRRLY-477, 24 h, read-out: DIZ
[4] = tested on: Proteus vulgaris; assay: Antibacterial activity against Proteus vulgaris assessed as diameter of inhibition zone at 1 mg/ml after 24 hrs by agar well diffusion method; settings: read-out: DIZ
[5] = tested on: Escherichia coli; assay: Antibacterial activity against Escherichia coli ATCC 25922 assessed as diameter of inhibition zone at 1 mg/ml after 24 hrs by agar well diffusion method; settings: ATCC 25922, 24 h, read-out: DIZ
[6] = tested on: Bacillus subtilis; assay: Antibacterial activity against Bacillus subtilis ATCC 6633 assessed as diameter of inhibition zone at 1 mg/ml after 24 hrs by agar well diffusion method; settings: ATCC 6633, 24 h, read-out: DIZ
[7] = tested on: Priestia megaterium; assay: Antibacterial activity against Bacillus megaterium ATCC 9885 assessed as diameter of inhibition zone at 1 mg/ml after 24 hrs by agar well diffusion method; settings: ATCC 9885, 24 h, read-out: DIZ
[8] = tested on: Saccharomyces cerevisiae; assay: Antifungal activity against Saccharomyces cerevisiae assessed as diameter of inhibition zone at 1 mg/ml after 24 hrs by agar well diffusion method; settings: read-out: DIZ
[9] = tested on: Klebsiella pneumoniae; assay: Antibacterial activity against Klebsiella pneumoniae ATCC 13883 assessed as diameter of inhibition zone at 1 mg/ml after 24 hrs by agar well diffusion method; settings: ATCC 13883, 24 h, read-out: DIZ
[10] = tested on: Micrococcus luteus; assay: Antibacterial activity against Sarcina lutea assessed as diameter of inhibition zone at 1 mg/ml after 24 hrs by agar well diffusion method; settings: read-out: DIZ

| SMILES | zone of inhibition at 1000 µg/mL [1] [mm] | zone of inhibition at 1000 µg/mL [2] [mm] | zone of inhibition at 1000 µg/mL [3] [mm] | zone of inhibition at 1000 µg/mL [4] [mm] | zone of inhibition at 1000 µg/mL [5] [mm] | zone of inhibition at 1000 µg/mL [6] [mm] | zone of inhibition at 1000 µg/mL [7] [mm] | zone of inhibition at 1000 µg/mL [8] [mm] | zone of inhibition at 1000 µg/mL [9] [mm] | zone of inhibition at 1000 µg/mL [10] [mm] |
| --- | --- | --- | --- | --- | --- | --- | --- | --- | --- | --- |
| CCOc1ccc(NC(=O)c2ccccc2NC(=S)Nc2ccc(C(=O)NCC(=O)O)cc2)cc1 | 0 | 20 | 9 | 15 | 0 | 0 | 0 | 18 | 20 | 0 |
| NS(=O)(=O)c1ccc(NC(=S)Nc2ccc(C(=O)NCC(=O)O)cc2)cc1 | 19 | 14 | 0 | 20 | 18 | 18 | 20 | 17 | 22 | 20 |
| CC(=O)NS(=O)(=O)c1ccc(NC(=S)Nc2ccc(C(=O)NCC(=O)O)cc2)cc1 | 12 | 15 | 0 | 0 | 0 | 18 | 20 | 0 | 0 | 0 |
| N=C(N)NS(=O)(=O)c1ccc(NC(=S)Nc2ccc(C(=O)NCC(=O)O)cc2)cc1 | 0 | 0 | 0 | 0 | 0 | 16 | 20 | 15 | 0 | 0 |
| O=C(O)CNC(=O)c1ccc(NC(=S)Nc2ccc(S(=O)(=O)Nc3nccs3)cc2)cc1 | 30 | 0 | 0 | 0 | 0 | 15 | 14 | 0 | 0 | 0 |
| O=C(O)CNC(=O)c1ccc(NC(=S)Nc2ccc(S(=O)(=O)Nc3ccccn3)cc2)cc1 | 21 | 23 | 11 | 0 | 21 | 12 | 0 | 20 | 20 | 0 |
| Cc1c(NC(=S)Nc2ccc(C(=O)NCC(=O)O)cc2)c(=O)n(-c2ccccc2)n1C | 22 | 18 | 0 | 19 | 14 | 15 | 18 | 17 | 19 | 24 |
| O=C(O)CNC(=O)c1ccc(NC(=S)NNC(=O)c2ccccc2)cc1 | 15 | 22 | 9 | 15 | 15 | 12 | 10 | 13 | 20 | 20 |
| O=C(O)CNC(=O)c1ccc(NC(=S)NNC(=O)c2ccncc2)cc1 | 12 | 0 | 12 | 0 | 0 | 0 | 23 | 0 | 0 | 24 |
